Laboratory results published in ChEMBL document CHEMBL2380214, “Novel hybrids of (phenylsulfonyl)furoxan and anilinopyrimidine as potent and selective epidermal growth factor receptor inhibitors for intervention of non-small-cell lung cancer” (J Med Chem, 2013).
Active and inactive are the calls of the source. The rule behind the calls is not given here.

Tests used:
NCI-H1975 [1] = test: Induction of NO production in human NCI-H1975 cells harboring EGFR L858R/[…] double mutant assessed as increase in nitrite level at 100 uM after 150 mins by Griess assay; format: functional, cell-based
cells [2] = format: ADME, cell-based; conditions: Homo sapiens, 16HBE14o-, 72 h
Description: Cytotoxicity against human 16HBE14o- cells harboring wild type EGFR assessed as growth inhibition after 72 hrs by MTT assay

cells [3] = format: ADME, cell-based; conditions: Homo sapiens, BEAS-2B, 72 h
Description: Cytotoxicity against human BEAS2B cells harboring wild type EGFR assessed as growth inhibition after 72 hrs by MTT assay

A-431 = test: cells; format: ADME, cell-based; conditions: Homo sapiens, A-431, 72 h
Description: Cytotoxicity against human A431 cells overexpressing wild type EGFR assessed as growth inhibition after 72 hrs by MTT assay

A549 = test: cells; format: ADME, cell-based; conditions: Homo sapiens, A549, 72 h
Description: Cytotoxicity against human A549 cells harboring wild type EGFR and k-RAS mutation assessed as growth inhibition after 72 hrs by MTT assay

NCI-H1975 [4] = test: Cytotoxicity against gefitinib-resistant human NCI-H1975 cells harboring EGFR L858R/[…] double mutant assessed as growth inhibition after 72 hrs by MTT assay; format: functional, cell-based; conditions: NCI-H1975, 72 h
[5] = target: Epidermal growth factor receptor (Homo sapiens, UniProt P00533)
Epidermal growth factor receptor (Homo sapiens, UniProt P00533), sequence (P00533 whole entry): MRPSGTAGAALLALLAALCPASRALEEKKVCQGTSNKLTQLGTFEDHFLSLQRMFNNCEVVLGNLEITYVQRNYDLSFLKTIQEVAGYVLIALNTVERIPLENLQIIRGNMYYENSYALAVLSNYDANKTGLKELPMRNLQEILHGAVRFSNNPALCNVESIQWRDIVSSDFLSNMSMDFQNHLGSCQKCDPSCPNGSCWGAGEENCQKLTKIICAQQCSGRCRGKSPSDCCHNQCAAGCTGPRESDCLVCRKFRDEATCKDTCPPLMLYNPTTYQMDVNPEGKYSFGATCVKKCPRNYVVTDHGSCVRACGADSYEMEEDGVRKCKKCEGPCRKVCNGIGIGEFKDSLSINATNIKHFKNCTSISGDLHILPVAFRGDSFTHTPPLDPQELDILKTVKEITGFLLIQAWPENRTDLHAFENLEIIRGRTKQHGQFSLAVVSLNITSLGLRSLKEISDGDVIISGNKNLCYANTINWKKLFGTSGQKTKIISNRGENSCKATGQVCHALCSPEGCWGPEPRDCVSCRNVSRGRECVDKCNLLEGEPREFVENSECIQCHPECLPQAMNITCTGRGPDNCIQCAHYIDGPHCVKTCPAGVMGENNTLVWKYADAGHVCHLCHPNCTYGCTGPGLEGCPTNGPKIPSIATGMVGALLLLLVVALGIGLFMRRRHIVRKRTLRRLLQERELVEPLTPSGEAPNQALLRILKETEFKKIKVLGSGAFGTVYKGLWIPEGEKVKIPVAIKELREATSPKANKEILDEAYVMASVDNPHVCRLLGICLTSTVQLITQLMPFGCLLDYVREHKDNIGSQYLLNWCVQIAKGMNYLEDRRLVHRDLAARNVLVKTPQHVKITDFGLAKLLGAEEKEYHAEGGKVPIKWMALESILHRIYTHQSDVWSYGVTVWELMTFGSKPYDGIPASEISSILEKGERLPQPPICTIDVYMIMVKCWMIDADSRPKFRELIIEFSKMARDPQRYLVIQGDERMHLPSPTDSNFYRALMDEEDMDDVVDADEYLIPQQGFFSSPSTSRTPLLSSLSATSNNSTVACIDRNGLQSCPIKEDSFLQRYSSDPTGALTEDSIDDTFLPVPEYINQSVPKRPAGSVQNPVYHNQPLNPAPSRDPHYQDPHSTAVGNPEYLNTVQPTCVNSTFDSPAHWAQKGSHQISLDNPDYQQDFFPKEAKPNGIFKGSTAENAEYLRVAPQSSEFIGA
Description: Inhibition of wild type EGFR (unknown origin) after 1.5 hrs by FRET-based Z'Lyte assay

cells [6] = format: functional, cell-based; conditions: Homo sapiens, HCC827, 72 h
[7] = target: Epidermal growth factor receptor (Homo sapiens, UniProt P00533, L858R/T790M); format: protein assay
Epidermal growth factor receptor (Homo sapiens, UniProt P00533, L858R/T790M), sequence (P00533 25-1210 T790M/L858R limits assumed): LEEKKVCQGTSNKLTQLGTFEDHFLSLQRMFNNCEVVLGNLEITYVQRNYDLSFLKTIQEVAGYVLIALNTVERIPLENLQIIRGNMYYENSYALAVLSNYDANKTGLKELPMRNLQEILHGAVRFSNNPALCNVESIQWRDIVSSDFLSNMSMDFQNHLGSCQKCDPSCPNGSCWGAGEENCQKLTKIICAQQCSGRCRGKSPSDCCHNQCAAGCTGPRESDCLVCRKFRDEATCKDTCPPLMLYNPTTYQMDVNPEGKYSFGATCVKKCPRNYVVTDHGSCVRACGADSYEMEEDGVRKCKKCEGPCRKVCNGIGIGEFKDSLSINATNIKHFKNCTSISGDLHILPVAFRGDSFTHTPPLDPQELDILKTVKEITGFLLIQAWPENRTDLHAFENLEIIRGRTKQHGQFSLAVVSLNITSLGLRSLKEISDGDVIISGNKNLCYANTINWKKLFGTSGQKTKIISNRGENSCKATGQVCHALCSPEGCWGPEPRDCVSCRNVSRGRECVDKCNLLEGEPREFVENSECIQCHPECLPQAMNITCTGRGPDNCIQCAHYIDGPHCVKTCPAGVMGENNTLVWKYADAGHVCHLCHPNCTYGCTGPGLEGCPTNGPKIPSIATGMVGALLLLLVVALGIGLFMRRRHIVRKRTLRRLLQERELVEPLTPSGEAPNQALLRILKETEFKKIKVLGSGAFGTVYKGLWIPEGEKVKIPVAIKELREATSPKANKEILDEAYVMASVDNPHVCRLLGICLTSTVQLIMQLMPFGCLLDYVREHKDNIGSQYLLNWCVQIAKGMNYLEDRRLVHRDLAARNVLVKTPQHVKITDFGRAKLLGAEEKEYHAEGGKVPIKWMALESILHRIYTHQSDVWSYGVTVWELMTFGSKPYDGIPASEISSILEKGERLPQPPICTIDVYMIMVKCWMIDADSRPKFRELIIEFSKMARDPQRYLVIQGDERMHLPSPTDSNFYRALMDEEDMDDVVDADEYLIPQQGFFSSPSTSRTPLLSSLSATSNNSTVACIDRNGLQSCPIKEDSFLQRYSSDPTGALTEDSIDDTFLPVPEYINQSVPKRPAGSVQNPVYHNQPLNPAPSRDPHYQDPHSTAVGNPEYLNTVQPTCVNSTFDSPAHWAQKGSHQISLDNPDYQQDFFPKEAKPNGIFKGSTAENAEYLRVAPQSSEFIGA
Description: Inhibition of EGFR L858R/T790M double mutant (unknown origin) after 1.5 hrs by FRET-based Z'Lyte assay

[8] = target: Epidermal growth factor receptor (Homo sapiens, UniProt P00533, L858R); format: protein assay
Epidermal growth factor receptor (Homo sapiens, UniProt P00533, L858R), sequence (P00533 25-1210 L858R limits assumed): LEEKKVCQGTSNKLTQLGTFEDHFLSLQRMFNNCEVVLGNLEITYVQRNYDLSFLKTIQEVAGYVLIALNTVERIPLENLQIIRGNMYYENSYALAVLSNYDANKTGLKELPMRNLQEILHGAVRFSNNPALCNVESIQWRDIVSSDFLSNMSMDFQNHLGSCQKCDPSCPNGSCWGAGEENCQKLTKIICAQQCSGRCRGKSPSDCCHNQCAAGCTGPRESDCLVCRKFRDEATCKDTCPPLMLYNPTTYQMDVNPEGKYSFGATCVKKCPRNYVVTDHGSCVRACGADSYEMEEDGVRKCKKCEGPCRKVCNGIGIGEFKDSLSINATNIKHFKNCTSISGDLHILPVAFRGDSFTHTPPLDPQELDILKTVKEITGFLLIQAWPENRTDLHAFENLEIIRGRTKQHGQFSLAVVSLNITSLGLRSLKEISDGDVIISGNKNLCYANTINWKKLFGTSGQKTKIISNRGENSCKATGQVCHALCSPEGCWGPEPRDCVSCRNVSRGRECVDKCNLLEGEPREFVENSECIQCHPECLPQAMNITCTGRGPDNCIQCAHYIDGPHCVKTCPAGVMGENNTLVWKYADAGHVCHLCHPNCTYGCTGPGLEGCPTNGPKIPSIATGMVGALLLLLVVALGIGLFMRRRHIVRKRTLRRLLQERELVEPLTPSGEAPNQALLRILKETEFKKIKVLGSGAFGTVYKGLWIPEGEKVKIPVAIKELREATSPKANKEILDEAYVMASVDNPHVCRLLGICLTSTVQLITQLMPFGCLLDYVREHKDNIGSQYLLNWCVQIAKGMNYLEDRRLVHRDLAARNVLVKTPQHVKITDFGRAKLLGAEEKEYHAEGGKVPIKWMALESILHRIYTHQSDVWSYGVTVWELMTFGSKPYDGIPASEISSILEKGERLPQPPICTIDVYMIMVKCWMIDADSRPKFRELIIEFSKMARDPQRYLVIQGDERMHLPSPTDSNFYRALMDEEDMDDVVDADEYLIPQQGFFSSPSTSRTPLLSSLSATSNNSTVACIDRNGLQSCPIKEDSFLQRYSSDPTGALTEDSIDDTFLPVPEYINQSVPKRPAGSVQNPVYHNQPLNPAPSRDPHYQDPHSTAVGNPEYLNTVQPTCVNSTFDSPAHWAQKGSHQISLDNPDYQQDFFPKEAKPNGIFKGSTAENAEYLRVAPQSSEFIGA
Description: Inhibition of EGFR L858R mutant (unknown origin) after 1.5 hrs by FRET-based Z'Lyte assay

| IC50 (cells [2]) | IC50 (cells [3]) | IC50 (A-431) | IC50 (A549) | IC50 [5] | IC50 (cells [6]) | IC50 [7] | IC50 [8] | Structure (SMILES) | Activity (NCI-H1975 [1]) | IC50 (NCI-H1975 [4]) |
| --- | --- | --- | --- | --- | --- | --- | --- | --- | --- | --- |
| 3160 nM | 2940 nM | 3020 nM | 4450 nM | 101 nM | 41 nM | 30 nM | 113 nM | C=CC(=O)Nc1cccc(Oc2nc(Nc3ccc(N4CCN(CC(=O)OCCOCCOc5no[n+]([O-])c5S(=O)(=O)c5ccccc5)CC4)cc3OC)ncc2Cl)c1 | Active | 471 nM |
| 3400 nM | 1240 nM | 3380 nM | 23600 nM | – | 4290 nM | – | – | O=S(=O)(c1ccccc1)c1c(OCCCCCCO)no[n+]1[O-] | Active | 5930 nM |
| 2040 nM | 1350 nM | 1230 nM | 2560 nM | 59 nM | 7 nM | 17 nM | 83 nM | C=CC(=O)Nc1cccc(Oc2nc(Nc3ccc(N4CCN(CC(=O)OCCOc5no[n+]([O-])c5S(=O)(=O)c5ccccc5)CC4)cc3OC)ncc2Cl)c1 | – | 63 nM |
| 1480 nM | 1890 nM | 609 nM | 2120 nM | 39 nM | 291 nM | 6 nM | 40 nM | C=CC(=O)Nc1cccc(Oc2nc(Nc3ccc(N4CCN(CC(=O)N5CCN(CCOc6no[n+]([O-])c6S(=O)(=O)c6ccccc6)CC5)CC4)cc3OC)ncc2Cl)c1 | Active | 311 nM |
| 1800 nM | 2200 nM | 701 nM | 4250 nM | 42 nM | 33 nM | 13 nM | 66 nM | C=CC(=O)Nc1cccc(Oc2nc(Nc3ccc(N4CCN(CC(=O)N5CCC(Oc6no[n+]([O-])c6S(=O)(=O)c6ccccc6)CC5)CC4)cc3OC)ncc2Cl)c1 | – | 855 nM |
| 707 nM | > 50000 nM | > 10000 nM | 1450 nM | – | 100 nM | – | – | C=CC(=O)Nc1cccc(Oc2nc(Nc3ccc(N4CCN(CC(=O)OCC)CC4)cc3OC)ncc2Cl)c1 | – | 1510 nM |
| 2620 nM | 959 nM | 3500 nM | 5530 nM | 52 nM | 10 nM | 16 nM | 64 nM | C=CC(=O)Nc1cccc(Oc2nc(Nc3ccc(N4CCN(CC(=O)OCC#CCOc5no[n+]([O-])c5S(=O)(=O)c5ccccc5)CC4)cc3OC)ncc2Cl)c1 | Active | 43 nM |
| 1550 nM | 1530 nM | 736 nM | 2260 nM | 51 nM | 9 nM | 14 nM | 63 nM | C=CC(=O)Nc1cccc(Oc2nc(Nc3ccc(N4CCN(CC(=O)NCCOc5no[n+]([O-])c5S(=O)(=O)c5ccccc5)CC4)cc3OC)ncc2Cl)c1 | Active | 2020 nM |
| 2580 nM | 2980 nM | 1060 nM | 2930 nM | 99 nM | 22 nM | 23 nM | 98 nM | C=CC(=O)Nc1cccc(Oc2nc(Nc3ccc(N4CCN(CC(=O)OCCCOc5no[n+]([O-])c5S(=O)(=O)c5ccccc5)CC4)cc3OC)ncc2Cl)c1 | – | 396 nM |
| 2280 nM | 2440 nM | 357 nM | 2480 nM | 59 nM | 21 nM | 13 nM | 68 nM | C=CC(=O)Nc1cccc(Oc2nc(Nc3ccc(N4CCN(CC(=O)NCCCOc5no[n+]([O-])c5S(=O)(=O)c5ccccc5)CC4)cc3OC)ncc2Cl)c1 | – | 1030 nM |
| 1850 nM | 988 nM | 660 nM | 1790 nM | 73 nM | 38 nM | 20 nM | 99 nM | C=CC(=O)Nc1cccc(Oc2nc(Nc3ccc(N4CCN(CC(=O)NCC(C)Oc5no[n+]([O-])c5S(=O)(=O)c5ccccc5)CC4)cc3OC)ncc2Cl)c1 (centres undefined) | Active | 245 nM |
